Experimental data published in patent US6656927B1, “Ip3 receptor ligands” (Daiichi Pharmaceutical., Ltd., priority 1999, dated 2003).

Experiments:
[1] = target: T1, IP3 binding domain (IBD, amino acid residues 1-885) of human IP3 receptor type 1 (Homo sapiens, UniProt Q14643); assay: Surface plasmon resonance competitive binding assay on Compound 1-immobilized sensor tip; conditions: for Kd: SPR competitive assay, Compound 2b re-assayed at IBD 1.76 nM; for Kd / binding of IBD to a Compound 1-immobilized tip: IBD 52.8 nM; for binding of IBD to a Compound 1-immobilized tip: competitive assay, FIG. 1B; for affinity relative to that of IP3: ratio of affinity to IBD versus IP3 (Table 1); for non-specific binding to the IP3 receptor in the competitive assay: IBD 1.76 nM, FIG. 1C
T1 construct: glutathione S-transferase (GST), joined by linker Leu-Val-Pro-Arg-Gly-Ser (N); His tag, joined by linker Leu-Val-Pro-Arg-Gly-Ser (C); made in house; host or cells: Escherichia coli BL-21 (DE3), vector pGEX2T
Source text: (1) Expression and Purification of Human IP3 Receptor Type 1
The IP3 binding domain (IBD, amino acid residues 1-885, Mignery, G. A., et al., EMBO J., 9, 3893, 1990) of human IP3 receptor type 1 (Yamada, N., et al., Biochem. J., 302, 781, 1994) was subcloned in pGEX2T (Amersham Pharmacia) for expression in bacteria. The N-terminus of IBD was fused to glutathione S-transferase using a linker sequence Leu-Val-Pro-Arg-Gly-Ser, whilst the C-terminus of IBD was labeled at His using a linker sequence Leu-Val-Pro-Arg-Gly-Ser. The protein was expressed in Escherichia coli BL-21 (DE3), and a recombinant protein was purified by using a resin on which Ni-NTA was immobilized (Amersham Pharmacia) and a HiTrap NHS-activated affinity column (Amersham Pharmacia) to which Compound 1 was bound. The purity of protein was calculated as 22% based on the result from SDS-PAGE.
(2) Measurement of Surface Plasmon Resonance
Surface plasmon resonance (SPR) was measured by using BIAcore 2000 (Amersham Pharmacia). After activation with NHS and EDC, 10 mM of Compound 1 in 100 mM borate buffer (pH 8.5) was bound to the surface of CM5 sensor tip, and inactivated with ethanolamine. In order to determine dissociation constants of IP3, Compound 1, Compound 2a, and Compound 2b, IBD purified beforehand was dissolved in a mobile phase buffer (10 mM HEPES, 150 mM NaCl, 3.4 mM EDTA and 0.005% Tween20, pH 7.4) together with each of the compounds. After each sample was injected, the tip surface was regenerated with 100 mM NaOH.
IBD bound to the tip in a concentration-dependent manner, however, non-specific binding with BSA (or glutathione S-transferase) was not observed. […] In order to determine affinity of IP3, Compound 1, Compound 2a and Compound 2b to IBD, a competitive assay was performed as follows. IBD (52.8 nM) was mixed with each of the aforementioned compounds at various concentrations. When the mixture was introduced onto the tip, a compound that competed with Compound 1 was […] (FIG. 1B). SPR obtained from this assay was applied to the equation to calculate dissociation constant (Kd) of each compound.
(3) Calculation of Dissociation Constants
For calculation of Kd of each compound, the resulting data plotted in FIGS. 1B and 1C were applied to the formula: 100[1−[X+Y+Kd−{X^2+2X (Kd−Y)+(Kd+Y)^2}^½]/2Y] wherein X and Y are a concentration of each compound and IBD concentration, respectively. […] Therefore, the IBD concentration was lowered to 1.76 nM, and the competitive assay for Compound 2b was performed again (FIG. 1C). The binding assay was carried out under a light condition and under a dark condition to verify that the binding was not affected by light.

IP3 receptor = assay: Denaturation of the IP3 receptor by light irradiation: IP3-induced Ca2+ releasing activity in smooth muscle tissue specimen; conditions: guinea pig portal vein smooth muscle, 1 μM compound, 1 μM IP3, FIG. 2C
Experimental: (1) Preparation of a Tissue Specimen
A strip of smooth muscle tissue prepared from a portal vein of male guinea pigs (weight 200-300 g) was fixed on a stainless steel wire to prepare a tissue specimen.
(2) Measurement of Ca^2+ Releasing Activity
The above specimen was incubated at 35° C. for 3.5 hours in a 40 μM solution of mag-fura-2 AM (Molecular Probes) as a Ca^2+ fluorescent indicator to have the mag-fura-2 AM taken up by the specimen. Subsequently, the specimen was incubated at 35° C. for 1.5 to 2 hours in a 40-60 μM solution of β-escin as a surfactant to remove the mag-fura-2 AM present other than in intracellular organelles.
The specimen was inserted into a glass capillary, and then initial change of fluorescence intensity ratio (fluorescence intensity at Ex. 340 nm, Em.480 nm/fluorescence intensity at Ex. 375 nm, Em. 480 nm, i.e., releasing rate), at addition of various solutions to the specimen, was fitted to an exponential curve to obtain a value as Ca^2+ releasing activity. As the fluorescence photometer, CAF-110 (JASCO) was used. […]
The tissue specimen prepared in the above (1) was added with 1 μM IP3, and its Ca^2+ releasing activity was measured (before irradiation). This specimen was removed from a fluorescence photometer after the measurement, and the inside of a capillary was filled with 1 μM solution of Compound 2b. […]

T1 sequence (Q14643 1-885 isoform Q14643-4): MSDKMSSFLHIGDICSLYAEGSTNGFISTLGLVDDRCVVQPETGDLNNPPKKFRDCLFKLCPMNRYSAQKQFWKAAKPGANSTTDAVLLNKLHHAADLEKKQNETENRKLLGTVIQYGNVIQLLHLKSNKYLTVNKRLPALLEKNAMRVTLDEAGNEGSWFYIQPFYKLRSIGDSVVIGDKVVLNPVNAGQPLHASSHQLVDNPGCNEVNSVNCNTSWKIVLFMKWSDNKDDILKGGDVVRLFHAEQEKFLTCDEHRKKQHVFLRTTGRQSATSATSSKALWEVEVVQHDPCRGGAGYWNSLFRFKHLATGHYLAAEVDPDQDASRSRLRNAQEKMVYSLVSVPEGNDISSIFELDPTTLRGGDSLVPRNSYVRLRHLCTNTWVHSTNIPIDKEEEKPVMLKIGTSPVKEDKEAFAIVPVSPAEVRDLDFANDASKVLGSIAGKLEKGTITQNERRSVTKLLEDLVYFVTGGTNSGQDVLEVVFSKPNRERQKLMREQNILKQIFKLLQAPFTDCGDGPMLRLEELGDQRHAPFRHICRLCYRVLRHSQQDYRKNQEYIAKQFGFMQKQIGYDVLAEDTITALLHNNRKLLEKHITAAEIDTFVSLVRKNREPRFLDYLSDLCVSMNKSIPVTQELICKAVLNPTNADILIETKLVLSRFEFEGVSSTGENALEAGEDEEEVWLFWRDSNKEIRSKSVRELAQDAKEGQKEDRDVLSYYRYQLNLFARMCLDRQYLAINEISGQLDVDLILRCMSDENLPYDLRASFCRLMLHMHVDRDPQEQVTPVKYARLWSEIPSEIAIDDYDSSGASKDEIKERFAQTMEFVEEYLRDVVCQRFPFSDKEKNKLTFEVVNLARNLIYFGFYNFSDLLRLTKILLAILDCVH

Kd [1] [nM]	binding of IBD to a Compound 1-immobilized tip [1]	affinity relative to that of IP3 [1]	Ca2+ releasing activity induced by IP3, addition of compound only (no laser irradiation) (IP3 receptor)	Ca2+ releasing activity induced by IP3, addition of compound and laser irradiation (IP3 receptor; 635 nm laser 3 minutes)	non-specific binding to the IP3 receptor in the competitive assay [1]	Compound
1100	inhibited	about ⅙				NCCCOP(=O)(O)O[C@@H]1[C@H](O)[C@H](O)[C@@H](OP(=O)(O)O)[C@H](OP(=O)(O)O)[C@H]1O [Compound 1]
1.17	inhibited	167 fold	not reduced	remarkably reduced	specifically bound to the IP3 receptor	CN(C)c1ccc(C(=C2C=CC(=[N+](C)C)C=C2)c2ccc(C(=O)NCCCOP(=O)(O)O[C@@H]3[C@H](O)[C@H](O)[C@@H](OP(=O)(O)O)[C@H](OP(=O)(O)O)[C@H]3O)cc2)cc1 [Compound 2b]
195	inhibited					O=P(O)(O)O[C@@H]1[C@H](O)[C@H](O)[C@@H](OP(=O)(O)O)[C@H](OP(=O)(O)O)[C@H]1O [IP3, D-Myo-inositol-1,4,5-trisphosphate]
					non-specific binding was not observed	carboxymalachite green
